SMILES strings stand for the structures.

The IC50 is the concentration that inhibits the measured activity by half.

The nature of this experiment: Antagonist activity at human recombinant CXCR2 assessed as inhibition of CXCL1-induced neutrophil chemotaxis after 45 mins by calcein-AM dye based plate reader method.

Turning to `CN1CCC(S(=O)(=O)c2c(Cl)ccc(NC(=O)Nc3cccc(Cl)c3Cl)c2O)CC1`, the IC50 was 158 nM.

For `CN1CCC(S(=O)(=O)c2c(Cl)ccc(NC(=O)Nc3cccc(F)c3Cl)c2O)CC1`, the IC50 is 25 nM.

Regarding `CCN1CCC(S(=O)(=O)c2c(Cl)ccc(NC(=O)Nc3cccc(F)c3Cl)c2O)CC1`, the IC50 is 158 nM.

With `CN1CC[C@H](S(=O)(=O)c2c(Cl)ccc(NC(=O)Nc3cccc(Cl)c3Cl)c2O)C1`, the IC50 is 251 nM.

Regarding `NS(=O)(=O)c1c(Cl)ccc(NC(=O)Nc2cccc(Cl)c2Cl)c1O`, the IC50 is 316 nM.

`O=C(Nc1ccc(Cl)c(S(=O)(=O)N2CCNCC2)c1O)Nc1cccc(Cl)c1Cl`: the half-inhibitory concentration (IC50) is 10000 nM.

On to `CN1CCN(S(=O)(=O)c2c(Cl)ccc(NC(=O)Nc3cccc(Cl)c3Cl)c2O)CC1`, for which the IC50 was 1000 nM.

Consider `CN1CCN(S(=O)(=O)c2c(Cl)ccc(NC(=O)Nc3cccc(F)c3Cl)c2O)CC1`, for which the concentration for half-maximal inhibition (IC50) was 316 nM.

`CCN1CCN(S(=O)(=O)c2c(Cl)ccc(NC(=O)Nc3cccc(F)c3Cl)c2O)CC1`: the half-maximal inhibitory concentration (IC50) was 2000 nM.

In the case of `CC(C)N1CCN(S(=O)(=O)c2c(Cl)ccc(NC(=O)Nc3cccc(F)c3Cl)c2O)CC1`, the IC50 is 2000 nM.

In the case of `C[C@@H]1CN(S(=O)(=O)c2c(Cl)ccc(NC(=O)Nc3cccc(F)c3Cl)c2O)C[C@H](C)O1`, the 50% inhibitory concentration (IC50) is 3160 nM.

As to `C[C@@H]1CN(S(=O)(=O)c2c(Cl)ccc(NC(=O)Nc3cccc(Cl)c3Cl)c2O)C[C@H](C)O1`, the IC50 was 15800 nM.

On to `CCS(=O)(=O)c1c(Cl)ccc(NC(=O)Nc2cccc(Cl)c2Cl)c1O`, for which the 50% inhibitory concentration (IC50) is 6310 nM.

Turning to `CC(C)S(=O)(=O)c1c(Cl)ccc(NC(=O)Nc2cccc(F)c2Cl)c1O`, the 50% inhibitory concentration (IC50) was 10 nM.

In the case of `CC(C)S(=O)(=O)c1c(Cl)ccc(NC(=O)Nc2cccc(Cl)c2Cl)c1O`, the 50% inhibitory concentration (IC50) is 158 nM.

On to `CC(C)(C)S(=O)(=O)c1c(Cl)ccc(NC(=O)Nc2cccc(F)c2Cl)c1O`, for which the IC50 was 40 nM.

In the case of `O=C(Nc1ccc(Cl)c(S(=O)(=O)C2CCC2)c1O)Nc1cccc(F)c1Cl`, the IC50 was 13 nM.

For `O=C(Nc1ccc(Cl)c(S(=O)(=O)C2CCCC2)c1O)Nc1cccc(F)c1Cl`, the IC50 is 25 nM.

As for `O=C(Nc1ccc(Cl)c(S(=O)(=O)C2CCCCC2)c1O)Nc1cccc(F)c1Cl`, the 50% inhibitory concentration (IC50) is 79 nM.

With `O=C(Nc1ccc(Cl)c(S(=O)(=O)C2CCOC2)c1O)Nc1cccc(Cl)c1Cl` (configuration not stated), the half-maximal inhibitory concentration (IC50) is 7.9 nM.

Turning to `O=C(Nc1ccc(Cl)c(S(=O)(=O)C2CCOCC2)c1O)Nc1cccc(Cl)c1Cl`, the half-maximal inhibitory concentration (IC50) was 6.3 nM.

Consider `CN1CC[C@H](S(=O)(=O)c2c(Cl)ccc(NC(=O)Nc3cccc(F)c3Cl)c2O)C1`, for which the 50% inhibitory concentration (IC50) is 79 nM.

In the case of `CN1CCC[C@H](S(=O)(=O)c2c(Cl)ccc(NC(=O)Nc3cccc(F)c3Cl)c2O)CC1`, the IC50 is 100 nM.

Turning to `CN1CC2(CC(S(=O)(=O)c3c(Cl)ccc(NC(=O)Nc4cccc(F)c4Cl)c3O)C2)C1`, the concentration for half-maximal inhibition (IC50) is 631 nM.

`CN1CCC2(CCC(S(=O)(=O)c3c(Cl)ccc(NC(=O)Nc4cccc(F)c4Cl)c3O)CC2)CC1`: the half-inhibitory concentration (IC50) is 25 nM.

Consider `O=C(Nc1ccc(Cl)c(C(=O)N2CCCC2)c1O)Nc1cccc(F)c1Cl`, for which the half-inhibitory concentration (IC50) was 7.9 nM.

Consider `O=C(Nc1ccc(Cl)c(C(=O)N2CCCCC2)c1O)Nc1cccc(F)c1Cl`, for which the IC50 is 6.3 nM.
